Results on one compound are retold here after patent US6667311B2, “Nitrogen substituted biaryl purine derivatives as potent antiproliferative agents” (Albany Molecular Research, Inc., priority 2001, dated 2003).

Assay type in all cases: cell-based, human
One test concerns HS 578T. Put plainly: NCI growth inhibition, HS 578T. The note with it: HS 578T (Breast).
The subject of the next test is MDA-MB-435. Briefly: NCI growth inhibition, MDA-MB-435. Conditions: MDA-MB-435 (Breast).
The subject of a further test is SF-295. Briefly: NCI growth inhibition, SF-295. The note with it: SF-295 (CNS).
The test system of a further test is COLO 205. Briefly: NCI growth inhibition, COLO 205. Conditions: COLO 205 (Colon).
The test system of the next test is HCT-116. Put plainly: NCI growth inhibition, HCT-116. Conditions: HCT-116 (Colon).
The next test concerns HCT-15. Put plainly: NCI growth inhibition, HCT-15. The note with it: HCT-15 (Colon).
Another test relates to MOLT-4. Briefly: NCI growth inhibition, MOLT-4. The note with it: MOLT-4 (Leukemia).
In another test the test system is SK-MEL-2. Put plainly: NCI growth inhibition, SK-MEL-2. Conditions: SK-MEL-2 (Melanoma).
Another test relates to A549/ATCC. Put plainly: NCI growth inhibition, A549/ATCC. Conditions: A549/ATCC (Non-Small Cell Lung).
A further test deals with HOP-92. Briefly: NCI growth inhibition, HOP-92. Conditions: HOP-92 (Non-Small Cell Lung).
The subject of another test is PC-3. Briefly: NCI growth inhibition, PC-3. The note with it: PC-3 (Prostate).
The subject of another test is ACHN. Briefly: NCI growth inhibition, ACHN. The note with it: ACHN (Renal).
The next test relates to CAKI-1. Briefly: NCI growth inhibition, CAKI-1. The note with it: CAKI-1 (Renal).

The GI50 is the concentration that inhibits growth by half. High values mean less potent growth inhibition, low ones more potent growth inhibition. As to `CC(=O)N[C@H]1CC[C@H](Nc2nc(NCc3ccc(-c4ccccc4)nc3)c3ncn(C(C)C)c3n2)CC1` [Compound 87], the GI50 is less than 10 nM in the test on HS 578T; less than 10 nM in the test with MDA-MB-435; 47 nM with SF-295; less than 10 nM in the test on COLO 205; 37 nM in the test on HCT-116; 66 nM in the test on HCT-15. Besides, the 50% growth inhibitory concentration (GI50) with MOLT-4 was 20 nM; in the test with SK-MEL-2, 56 nM; with A549/ATCC it was less than 10 nM; in the test with HOP-92 it was 88 nM; in the test with PC-3 it was 18 nM; in the test on ACHN, 190 nM. The compound also displayed a GI50 in the test with CAKI-1 of 64 nM.
